{
  "source": "patent US20090060851A1",
  "about": "“USE OF IDEBENONE FOR THE PREPARATION OF A TOPICALLY-APPLIED DEPIGMENTATION COMPOSITION AND CORRESPONDING COMPOSITION” (priority 2005, published 2009)",
  "key": {"SK-MEL-28 [1]": {"test_system": "SK-MEL-28", "assay": "Melanin content determination (OD400) in SK-MEL cells", "assay_type": "cell-based, human", "experimental": "In vitro determinations were performed following the method devised by Dooley et al. (Skin Pharmacol. 1994; 7:188-200) in order to evaluate the capacity of idebenone to inhibit melanogenesis, according to the process described below:\nCells: The study was carried out using a cell line derived from human melanoma, provided by ABAC (Asociación Banco Argentino de Células—Cell Bank of Argentina), with melanin synthesis capability (SK-MEL-28, ATCC origin). The cells were grown in plastic culture bottles or in 24-well plastic dishes in a modified Eagle medium (DMEM) supplemented with 10% fetal bovine serum (FBS) and were maintained at 37° C. in a 5% CO2 atmosphere.\nStudy of in vitro compounds: SK-MEL cells detached with trypsin were seeded on plastic 24-well dishes (density of 1×10^5 cells per well) and incubated for 24 hours in modified Eagle medium (DMEM) supplemented with 10% fetal bovine serum (FBS) prior to treating with the compound to be evaluated. After 24 hours have lapsed, the medium was replaced with 990 μl of fresh medium. 10 μl of sterile vehicle (50% propylene glycol, 30% ethanol and 20% distilled water) containing different concentrations of the compounds to be evaluated were added to this fresh medium.\nDecimal dilutions of each compound in the sterile vehicle were prepared in order to obtain final concentrations of the compound to be studied ranging between 1.000 and 0.01 μg/ml. […]\n[…] The cells were thus continuously exposed to the compounds under study for the 5 days the culture lasted. All the concentrations of the compounds were studied in triplicate, comparing the mean of the 3 wells treated with the compounds with those treated with the vehicle alone.\nMelanin content determination: The SK-MEL cell melanin content was determined after stirring the culture medium and washing the cells with PBS. The cells were then lysated by means of adding 1 ml of 1N NaOH to each well and repeated manual pipetting. The raw cell extract was analyzed using a spectrophotometer at 400 and 475 nm to determine the melanin and dopaquinone content, respectively. The results were expressed as a percentage of the cell cultures treated with the vehicle."}, "SK-MEL-28 [2]": {"test_system": "SK-MEL-28", "assay": "Cell number quantitation with violet crystal", "assay_type": "cell-based, human", "experimental": "Cells: The study was carried out using a cell line derived from human melanoma, provided by ABAC (Asociación Banco Argentino de Células—Cell Bank of Argentina), with melanin synthesis capability (SK-MEL-28, ATCC origin). […] Study of in vitro compounds: […] After 24 hours have lapsed, the medium was replaced with 990 μl of fresh medium. 10 μl of sterile vehicle (50% propylene glycol, 30% ethanol and 20% distilled water) containing different concentrations of the compounds to be evaluated were added to this fresh medium. […] On the fourth day, the cells were not treated, and the remaining adherent cells were assayed on the fifth day according to the methods described below. The cells were thus continuously exposed to the compounds under study for the 5 days the culture lasted. All the concentrations of the compounds were studied in triplicate, comparing the mean of the 3 wells treated with the compounds with those treated with the vehicle alone. Cell number quantitation with violet crystal: A stain with a violet crystal aqueous solution was used for the purpose of determining the number of cells adhering to the plastic surviving in vitro treatment by means of indirect methods. […] The dishes were stained for 5 minutes at room temperature on a rotary platform, with gentle stirring. Then the excess colorant was decanted by turning the dish over and the entire dish was submerged 4 times in distilled water in a suitable container. After rinsing, the dishes were turned over and allowed to drip on absorbent paper until the excess water was completely removed. […] The plates were finally placed on a rotary agitator for 30 minutes at room temperature. […] In order to determine the fraction of cells surviving treatment at a specific concentration of the experimental agent, the OD590 of the treated wells (average of three measurements) was divided by the OD590 of the wells used with a control vehicle (average of three measurements)."}, "[3]": {"conditions": "Example 9 (similar to Example 6), dilution −2"}, "[4]": {"conditions": "Example 9 (similar to Example 6), dilution −3"}, "[5]": {"conditions": "Example 9 (similar to Example 6), dilution −4"}, "[6]": {"conditions": "Example 9 (similar to Example 6), dilution −5"}, "[7]": {"conditions": "Example 9 (similar to Example 6), dilution −6"}, "[8]": {"conditions": "Example 9 (similar to Example 6), dilution −7"}, "[9]": {"conditions": "Example 9 (similar to Example 6), dilution −8"}, "[10]": {"conditions": "dilution −1, treated daily 3 days, assayed day 5"}, "[11]": {"conditions": "dilution −2, treated 1 day, evaluated third day"}, "[12]": {"conditions": "dilution −2, treated daily 3 days, assayed day 5"}, "[13]": {"conditions": "dilution −3, treated 1 day, evaluated third day"}, "[14]": {"conditions": "dilution −3, treated daily 3 days, assayed day 5"}, "[15]": {"conditions": "dilution −4, treated 1 day, evaluated third day"}, "[16]": {"conditions": "dilution −4, treated 2 days, evaluated fourth day"}, "[17]": {"conditions": "dilution −4, treated daily 3 days, assayed day 5"}, "[18]": {"conditions": "dilution −5, treated 1 day, evaluated third day"}, "[19]": {"conditions": "dilution −5, treated 2 days, evaluated fourth day"}, "[20]": {"conditions": "dilution −5, treated daily 3 days, assayed day 5"}, "[21]": {"conditions": "dilution −6, treated 1 day, evaluated third day"}, "[22]": {"conditions": "dilution −6, treated 2 days, evaluated fourth day"}},
  "data": [
    {"smiles": "COC1=C(OC)C(=O)C(CCCCCCCCCCO)=C(C)C1=O", "note": "[idebenone, 6-(10-hydroxydecyl)-2,3-dimethoxy-5-methyl-1,4-benzoquinone]", "values": [
      {"measurement": "OD400 (melanin)", "setting": "SK-MEL-28 [1]; [3]", "value": 0.01166},
      {"measurement": "OD400 Percentage (melanin)", "setting": "SK-MEL-28 [1]; [3]", "value": 71.40, "unit": "%"},
      {"measurement": "OD400 (melanin)", "setting": "SK-MEL-28 [1]; [4]", "value": 0.01566},
      {"measurement": "OD400 Percentage (melanin)", "setting": "SK-MEL-28 [1]; [4]", "value": 95.89, "unit": "%"},
      {"measurement": "OD400 (melanin)", "setting": "SK-MEL-28 [1]; [5]", "value": 0.01533},
      {"measurement": "OD400 Percentage (melanin)", "setting": "SK-MEL-28 [1]; [5]", "value": 93.87, "unit": "%"},
      {"measurement": "OD400 (melanin)", "setting": "SK-MEL-28 [1]; [6]", "value": 0.01466},
      {"measurement": "OD400 Percentage (melanin)", "setting": "SK-MEL-28 [1]; [6]", "value": 89.77, "unit": "%"},
      {"measurement": "OD400 (melanin)", "setting": "SK-MEL-28 [1]; [7]", "value": 0.009},
      {"measurement": "OD400 Percentage (melanin)", "setting": "SK-MEL-28 [1]; [7]", "value": 55.11, "unit": "%"},
      {"measurement": "OD400 (melanin)", "setting": "SK-MEL-28 [1]; [8]", "value": 0.01166},
      {"measurement": "OD400 Percentage (melanin)", "setting": "SK-MEL-28 [1]; [8]", "value": 71.40, "unit": "%"},
      {"measurement": "OD400 (melanin)", "setting": "SK-MEL-28 [1]; [9]", "value": 0.01166},
      {"measurement": "OD400 Percentage (melanin)", "setting": "SK-MEL-28 [1]; [9]", "value": 71.40, "unit": "%"},
      {"measurement": "Melanin synthesis inhibition", "setting": "SK-MEL-28 [1]; SK-MEL-28, Example 5", "value": "inhibits melanin synthesis in a dose-dependent manner"},
      {"measurement": "OD400 (melanin)", "setting": "SK-MEL-28 [1]; [10]", "value": 0.0156},
      {"measurement": "OD400 expressed as percentage of control (melanin)", "setting": "SK-MEL-28 [1]; [10]", "value": 28, "unit": "%"},
      {"measurement": "OD400 (melanin)", "setting": "SK-MEL-28 [1]; [11]", "value": 0.0040},
      {"measurement": "OD400 Percentage (melanin)", "setting": "SK-MEL-28 [1]; [11]", "value": 14.65, "unit": "%"},
      {"measurement": "OD400 (melanin)", "setting": "SK-MEL-28 [1]; [12]", "value": 0.0140},
      {"measurement": "OD400 expressed as percentage of control (melanin)", "setting": "SK-MEL-28 [1]; [12]", "value": 40, "unit": "%"},
      {"measurement": "OD400 (melanin)", "setting": "SK-MEL-28 [1]; [13]", "value": 0.0133},
      {"measurement": "OD400 Percentage (melanin)", "setting": "SK-MEL-28 [1]; [13]", "value": 48.72, "unit": "%"},
      {"measurement": "OD400 (melanin)", "setting": "SK-MEL-28 [1]; [14]", "value": 0.0123},
      {"measurement": "OD400 expressed as percentage of control (melanin)", "setting": "SK-MEL-28 [1]; [14]", "value": 52, "unit": "%"},
      {"measurement": "OD400 (melanin)", "setting": "SK-MEL-28 [1]; [15]", "value": 0.0243},
      {"measurement": "OD400 Percentage (melanin)", "setting": "SK-MEL-28 [1]; [15]", "value": 89.01, "unit": "%"},
      {"measurement": "OD400 (melanin)", "setting": "SK-MEL-28 [1]; [16]", "value": 0.0613},
      {"measurement": "OD400 Percentage (melanin)", "setting": "SK-MEL-28 [1]; [16]", "value": 112.89, "unit": "%"},
      {"measurement": "OD400 (melanin)", "setting": "SK-MEL-28 [1]; [17]", "value": 0.0096},
      {"measurement": "OD400 expressed as percentage of control (melanin)", "setting": "SK-MEL-28 [1]; [17]", "value": 59, "unit": "%"},
      {"measurement": "OD400 (melanin)", "setting": "SK-MEL-28 [1]; dilution −4, treated for 3 days, evaluated fifth day", "value": 0.0686},
      {"measurement": "OD400 Percentage (melanin)", "setting": "SK-MEL-28 [1]; dilution −4, treated for 5 days (heading: 3 days), evaluated fifth day", "value": 77.69, "unit": "%"},
      {"measurement": "OD400 (melanin)", "setting": "SK-MEL-28 [1]; [18]", "value": 0.0343},
      {"measurement": "OD400 Percentage (melanin)", "setting": "SK-MEL-28 [1]; [18]", "value": 125.64, "unit": "%"},
      {"measurement": "OD400 (melanin)", "setting": "SK-MEL-28 [1]; [19]", "value": 0.0626},
      {"measurement": "OD400 Percentage (melanin)", "setting": "SK-MEL-28 [1]; [19]", "value": 115.28, "unit": "%"},
      {"measurement": "OD400 (melanin)", "setting": "SK-MEL-28 [1]; [20]", "value": 0.0066},
      {"measurement": "OD400 expressed as percentage of control (melanin)", "setting": "SK-MEL-28 [1]; [20]", "value": 66, "unit": "%"},
      {"measurement": "OD400 (melanin)", "setting": "SK-MEL-28 [1]; dilution −5, treated for 3 days, evaluated fifth day", "value": 0.0742},
      {"measurement": "OD400 Percentage (melanin)", "setting": "SK-MEL-28 [1]; dilution −5, treated for 5 days (heading: 3 days), evaluated fifth day", "value": 84.03, "unit": "%"},
      {"measurement": "OD400 (melanin)", "setting": "SK-MEL-28 [1]; [21]", "value": 0.0313},
      {"measurement": "OD400 Percentage (melanin)", "setting": "SK-MEL-28 [1]; [21]", "value": 114.65, "unit": "%"},
      {"measurement": "OD400 (melanin)", "setting": "SK-MEL-28 [1]; [22]", "value": 0.0396},
      {"measurement": "OD400 Percentage (melanin)", "setting": "SK-MEL-28 [1]; [22]", "value": 72.92, "unit": "%"},
      {"measurement": "OD400 (melanin)", "setting": "SK-MEL-28 [1]; dilution −6, treated for 3 days, evaluated fifth day", "value": 0.0801},
      {"measurement": "OD400 Percentage (melanin)", "setting": "SK-MEL-28 [1]; dilution −6, treated for 5 days (heading: 3 days), evaluated fifth day", "value": 90.71, "unit": "%"},
      {"measurement": "Melanogenesis inhibition at high dilutions", "setting": "SK-MEL-28 [1]; −2 to −8 dilutions", "value": "preserves its ability to inhibit melanogenesis"},
      {"measurement": "Toxicity for cells", "setting": "SK-MEL-28 [2]; SK-MEL-28, high concentrations", "value": "may be toxic for cells"},
      {"measurement": "Percentage of viable cells", "setting": "SK-MEL-28 [2]; dilution −1, percentage of control vehicle", "value": 52, "unit": "%"},
      {"measurement": "Percentage of viable cells", "setting": "SK-MEL-28 [2]; dilution −2, percentage of control vehicle", "value": 82, "unit": "%"},
      {"measurement": "Percentage of viable cells", "setting": "SK-MEL-28 [2]; dilution −3, percentage of control vehicle", "value": 98, "unit": "%"},
      {"measurement": "Percentage of viable cells", "setting": "SK-MEL-28 [2]; dilution −4, percentage of control vehicle", "value": 100, "unit": "%"},
      {"measurement": "Percentage of viable cells", "setting": "SK-MEL-28 [2]; dilution −5, percentage of control vehicle", "value": 100, "unit": "%"}
    ]}
  ]
}
